Measurements: ChEMBL document CHEMBL5030557, “Tandem Repeat of a Short Human Chemerin-Derived Peptide and Its Nontoxic d-Lysine-Containing Enantiomer Display Broad-Spectrum Antimicrobial and Antitubercular Activities” (J Med Chem, 2021)
Converted amounts (≈) assume the structure as drawn. The source made the active and inactive calls. No cut-off for these calls is given here. Where a SMILES comes first, the peptide text is derived from it.

Experiments:
Pseudomonas aeruginosa [1] = assay: Antibacterial activity against Pseudomonas aeruginosa infected in Balb/c mouse stomach assessed as animal survival at 100 mg/kg, ip after 7 days; format: functional; conditions: 168 h, time 7 day
Pseudomonas aeruginosa [2] = assay: Antibacterial activity against Pseudomonas aeruginosa BAA 427 assessed as resistance development by measuring fold change in MIC after 30 passages with serially diluted peptides; format: functional
Escherichia coli [3] = assay: Antimicrobial activity against Escherichia coli ATCC 25922 assessed as inhibition of bacterial growth by broth dilution method; format: functional
Bacillus subtilis = assay: Antimicrobial activity against Bacillus subtilis ATCC 6633 assessed as inhibition of bacterial growth by broth dilution method; format: functional
Klebsiella pneumoniae = assay: Antimicrobial activity against Klebsiella pneumoniae ATCC 27736 assessed as inhibition of bacterial growth by broth dilution method; format: functional
Pseudomonas aeruginosa [4] = assay: Antimicrobial activity against Pseudomonas aeruginosa ATCC BAA-427 assessed as inhibition of bacterial growth by broth dilution method; format: functional
[5] = Retention time of the compound analysed by RP-HPLC analysis; format: physicochemical
Staphylococcus aureus [6] = assay: Antimicrobial activity against Staphylococcus aureus ATCC 25923 assessed as inhibition of bacterial growth by broth dilution method; format: functional
Staphylococcus aureus [7] = assay: Antimicrobial activity against methicilin- resistant Staphylococcus aureus ATCC 33591 assessed as inhibition of bacterial growth by broth dilution method; format: functional
Staphylococcus aureus [8] = assay: Antimicrobial activity against multidrug-resistant Staphylococcus aureus ATCC BAA-44 assessed as inhibition of bacterial growth by broth dilution method; format: functional
[9] = Stability of the compound in human serum assessed as intact compound remaining at 2 mg/ml measured after 60 mins by […] analysis; format: ADME, cell-free; conditions: read-out: Stability
[10] = Acute toxicity in BALB/c mouse assessed as survival at 20 mg/kg administered intravenously measured after 7 days; format: organism-based; conditions: in vivo, iv, 168 h, time 7 day
THP-1 = assay: Cytotoxicity against human monocyte THP-1 cell line assessed as cell viability measured for 24 hrs using ELISA plate reader; format: cell-based; conditions: thp-1, 24 h
[11] = Hemolytic activity in human RBC at 150 uM measured after 40 min by hemolysis assay relative to control; format: ADME, tissue-based, Erythrocyte; conditions: red blood cells (RBC), read-out: Activity
[12] = Hemolytic activity in human RBC measured after 40 mins; format: ADME, tissue-based, Erythrocyte; conditions: red blood cells (RBC)
Escherichia coli [13] = assay: Antibacterial activity against Escherichia coli ATCC 25922 in presence of 10 percent fresh human serum measured after 1 hr; format: functional
Escherichia coli [14] = assay: Antibacterial activity against Escherichia coli ATCC 25922 in presence of 4.5 mM KCl measured after 1 hr; format: functional
Escherichia coli [15] = assay: Antibacterial activity against Escherichia coli ATCC 25922 in presence of 150 mM NaCl measured after 1 hr; format: functional
Escherichia coli [16] = assay: Antibacterial activity against Escherichia coli ATCC 25922 in presence of temperature ranging from 4 to 90 degC measured after 1 hr; format: functional
Cell membrane [17] = assay: Induction of membrane damage in Escherichia coli assessed as disruption of membrane integrity at 10 uM incubated for 30 min by propidium iodide staining based assay
[18] = Disruption of membrane integrity in human RBC cells assessed as membrane damage at 150 uM incubated for 15 min by Alexa fluor-annexin V staining based assay (reference value: 0%); format: functional, Red blood cell; conditions: 0.25 h
Cell membrane [19] = assay: Inner membrane permeability of the compound in Escherichia coli ATCC 25922 by ONPG assay; format: ADME, subcellular
Cell membrane [20] = assay: Disruption of plasma membrane in Staphylococcus aureus ATCC 25923 at 10 uM by SYTOX-green uptake assay; format: cell membranes; conditions: TDE = time-dependent effect
[21] = Permeability of the compound in PC/PG lipid vesicles by spectrofluorometry; format: ADME
Lipid bilayer = assay: Induction of membrane depolarization in mammalian mimetic PC/Chol vesicles assessed as membrane permeabilization
Escherichia coli [22] = assay: Bactericidal activity against Escherichia coli ATCC 25922 assessed as bacterial killing at 5 times MIC measured after 60 min; format: functional, organism-based
Pseudomonas aeruginosa [23] = assay: Antibacterial activity against Pseudomonas aeruginosa infected in Balb/c mouse stomach assessed as animal survival at 5 mg/kg, ip after 7 days; format: functional; conditions: 168 h, time 7 day
Pseudomonas aeruginosa [24] = assay: Antibacterial activity against Pseudomonas aeruginosa infected in Balb/c mouse stomach assessed as animal survival at 10 mg/kg, ip after 7 days; format: functional; conditions: 168 h, time 7 day
Pseudomonas aeruginosa [25] = assay: Anti-infective activity in Pseudomonas aeruginosa infected BALB/c mouse spleen assessed as reduction in bacterial growth at 10 mg/kg, ip after 12 hrs; format: functional, organism-based
Pseudomonas aeruginosa [26] = assay: Anti-infective activity in Pseudomonas aeruginosa infected BALB/c mouse spleen assessed as reduction in bacterial growth at 10 mg/kg, ip after 18 hrs; format: functional, organism-based
Pseudomonas aeruginosa [27] = assay: Anti-infective activity in Pseudomonas aeruginosa infected BALB/c mouse liver assessed as reduction in bacterial growth at 10 mg/kg, ip after 12 hrs; format: functional, organism-based
Pseudomonas aeruginosa [28] = assay: Anti-infective activity in Pseudomonas aeruginosa infected BALB/c mouse liver assessed as reduction in bacterial growth at 10 mg/kg, ip after 18 hrs; format: functional, organism-based
Pseudomonas aeruginosa [29] = assay: Anti-infective activity in Pseudomonas aeruginosa infected BALB/c mouse kidney assessed as reduction in bacterial growth at 10 mg/kg, ip after 12 hrs; format: functional, organism-based
Pseudomonas aeruginosa [30] = assay: Anti-infective activity in Pseudomonas aeruginosa infected BALB/c mouse kidney assessed as reduction in bacterial growth at 10 mg/kg, ip after 18 hrs; format: functional, organism-based
[31] = tested on: Mycolicibacterium smegmatis; assay: Anti-mycobacterial activity against Mycobacterium smegmatis assessed as growth inhibition at 16.13 uM relative to control; format: functional
[32] = tested on: Mycobacterium tuberculosis; assay: Anti-mycobacterial activity against Mycobacterium tuberculosis H37Ra assessed as growth inhibition at 16.13 uM relative to control; format: functional
[33] = tested on: Mycolicibacterium smegmatis; assay: Anti-mycobacterial activity against Mycobacterium smegmatis assessed as reduction in CFU at 3 times MIC after 12 hrs; format: functional, organism-based
[34] = tested on: Mycolicibacterium smegmatis; assay: Anti-mycobacterial activity against Mycobacterium smegmatis assessed as reduction in CFU at 3 times MIC after 24 hrs; format: functional, organism-based
[35] = tested on: Mycolicibacterium smegmatis; assay: Anti-mycobacterial activity against Mycobacterium smegmatis infected in human THP-1 cells assessed as reduction in CFU at 24.19 uM after 24 hrs; format: functional
[36] = tested on: Mycolicibacterium smegmatis; assay: Anti-mycobacterial activity against Mycobacterium smegmatis infected in human THP-1 cells assessed as reduction in CFU at 40.13 uM after 24 hrs; format: functional
[37] = Acute toxicity in BALB/c mouse assessed as change in body weight at 20 mg/kg administered intravenously measured after 7 days; format: organism-based; conditions: in vivo, iv, 168 h, time 7 day

C[C@H]1COc2c(N3CCN(C)CC3)c(F)cc3c(=O)c(C(=O)O)cn1c23 [LEVOFLOXACIN]
survival at 100 mg/kg (Pseudomonas aeruginosa [1]): 100%

CN(C)[C@@H]1C(O)=C(C(N)=O)C(=O)[C@@]2(O)C(O)=C3C(=O)c4c(O)cccc4C(C)(O)[C@H]3C[C@@H]12 (some centres undefined)
fold change (FC) (Pseudomonas aeruginosa [2]): 16

CC(C)C[C@H](NC(=O)[C@H](CCCNC(=N)N)NC(=O)CNC(=O)[C@H](CC(C)C)NC(=O)[C@@H](NC(=O)[C@@H](N)CCCCN)C(C)C)C(=O)N[C@H](C(N)=O)C(C)C (H-KVLGRLV-NH2)
MIC (Escherichia coli [3]): > 100 µM | MIC (Bacillus subtilis): > 100 µM | MIC (Klebsiella pneumoniae): > 100 µM | MIC (Pseudomonas aeruginosa [4]): > 100 µM | Retention_time [5]: 8.1 min | MIC (Staphylococcus aureus [6]): > 100 µM | MIC (Staphylococcus aureus [7]): > 100 µM | MIC (Staphylococcus aureus [8]): > 100 µM

CC(C)C[C@H](NC(=O)[C@H](CCCNC(=N)N)NC(=O)CNC(=O)[C@H](CC(C)C)NC(=O)[C@@H](NC(=O)[C@@H](CCCCN)NC(=O)[C@@H](NC(=O)[C@H](CC(C)C)NC(=O)[C@H](CCCNC(=N)N)NC(=O)CNC(=O)[C@H](CC(C)C)NC(=O)[C@@H](NC(=O)[C@@H](N)CCCCN)C(C)C)C(C)C)C(C)C)C(=O)N[C@H](C(N)=O)C(C)C
MIC (Escherichia coli [3]): 1 µM (≈ 1.55 µg/mL) | MIC (Bacillus subtilis): 2 µM (≈ 3.1 µg/mL) | MIC (Klebsiella pneumoniae): 4 µM (≈ 6.2 µg/mL) | MIC (Pseudomonas aeruginosa [4]): 4 µM (≈ 6.2 µg/mL) | remaining at 1 h, 2 mg/ml [9]: 88% | Activity [10]: Toxic | Activity (THP-1): Non-Toxic | Retention_time [5]: 14.6 min | hemolysis at 40 min, 150 µM [11]: 0% | MIC (Staphylococcus aureus [6]): 1 µM (≈ 1.55 µg/mL) | MIC (Staphylococcus aureus [7]): 2 µM (≈ 3.1 µg/mL) | MIC (Staphylococcus aureus [8]): 2 µM (≈ 3.1 µg/mL) | HC50 at 40 min [12]: > 2 mM | MIC (Escherichia coli [13]): 2 µM | MIC (Escherichia coli [14]): 8 µM | MIC (Escherichia coli [15]): 4 µM | MIC (Escherichia coli [16]): 2 µM | Activity (Cell membrane [17]): Active | Activity [18]: 2.1% | Activity (Cell membrane [19]): Active | Activity (Cell membrane [20]): Tde | Activity [21]: Active | Activity (Lipid bilayer): inactive | fold change (FC) (Pseudomonas aeruginosa [2]): 2 | Activity (Escherichia coli [22]): Active | survival at 5 mg/kg (Pseudomonas aeruginosa [23]): 40% | survival at 10 mg/kg (Pseudomonas aeruginosa [24]): 80% | Activity (Pseudomonas aeruginosa [25]): Active | Activity (Pseudomonas aeruginosa [26]): Active | Activity (Pseudomonas aeruginosa [27]): Active | Activity (Pseudomonas aeruginosa [28]): Active | Activity (Pseudomonas aeruginosa [29]): Active | Activity (Pseudomonas aeruginosa [30]): Active | inhibition at 16.13 µM [31]: 95% | inhibition at 16.13 µM [32]: 95% | Activity [33]: Active | Activity [34]: Active | inhibition at 24.19 µM [35]: 40% | inhibition at 40.13 µM [36]: 80% | Activity [37]: Non-Toxic

CC(C)C[C@H](NC(=O)[C@H](CCCNC(=N)N)NC(=O)CNC(=O)[C@H](CC(C)C)NC(=O)[C@@H](NC(=O)[C@@H](CCCCN)NC(=O)[C@@H](NC(=O)[C@H](CC(C)C)NC(=O)[C@H](CCCNC(=N)N)NC(=O)CNC(=O)[C@H](CC(C)C)NC(=O)[C@@H](NC(=O)[C@H](N)CCCCN)C(C)C)C(C)C)C(C)C)C(=O)N[C@H](C(N)=O)C(C)C
MIC (Escherichia coli [3]): 1 µM (≈ 1.55 µg/mL) | MIC (Bacillus subtilis): 2 µM (≈ 3.1 µg/mL) | MIC (Klebsiella pneumoniae): 4 µM (≈ 6.2 µg/mL) | MIC (Pseudomonas aeruginosa [4]): 4 µM (≈ 6.2 µg/mL) | Retention_time [5]: 16.5 min | MIC (Staphylococcus aureus [6]): 2 µM (≈ 3.1 µg/mL) | MIC (Staphylococcus aureus [7]): 2 µM (≈ 3.1 µg/mL) | MIC (Staphylococcus aureus [8]): 2 µM (≈ 3.1 µg/mL) | HC50 at 40 min [12]: 1.93 mM | MIC (Escherichia coli [13]): 2 µM | MIC (Escherichia coli [14]): 2 µM | MIC (Escherichia coli [15]): 1 µM | MIC (Escherichia coli [16]): 2 µM | Activity (Cell membrane [17]): Active | Activity [18]: 13.9%

GENTAMICIN
MIC (Pseudomonas aeruginosa [4]): 1.35 µM | MIC (Staphylococcus aureus [6]): 0.67 µM | MIC (Staphylococcus aureus [8]): 1.35 µM | fold change (FC) (Pseudomonas aeruginosa [2]): 16
